Measured values published in PubChem BioAssay AID256 (DTP/NCI, 2004).
Inconclusive results and toxic doses are left out.

Tested on: CD2F1 mice, L1210 leukemia ip, survival T/C
Experiment: NCI In Vivo Anticancer Drug Screen. Data for tumor model L1210 Leukemia (intraperitoneal) in CD2F1 (CDF1) mice
Conditions: higher = longer survival
Method in brief: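 Ratio T/C, where T is the treated-group value and C the vehicle-dosed control value, from mice implanted with a transplantable tumor.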

[1] = endpoint: mean survival time, dose: 100.0 mg/kg/injection, schedule: Q01DX009 (ip), vehicle: saline
[2] = endpoint: mean survival time, dose: 400.0 mg/kg/injection, schedule: Q01DX009 (ip), vehicle: saline
[3] = endpoint: mean survival time, dose: 100.0 mg/kg/injection, schedule: Q01DX009 (ip), vehicle: saline with Tween-80
[4] = endpoint: mean survival time, dose: 100.0 mg/kg/injection, schedule: Q04DX003 (ip), vehicle: saline with Tween-80
[5] = endpoint: mean survival time, dose: 200.0 mg/kg/injection, schedule: Q01DX009 (ip), vehicle: saline with Tween-80
[6] = endpoint: mean survival time, dose: 200.0 mg/kg/injection, schedule: Q04DX003 (ip), vehicle: saline with Tween-80
[7] = endpoint: mean survival time, dose: 400.0 mg/kg/injection, schedule: Q01DX009 (ip), vehicle: saline with Tween-80
[8] = endpoint: mean survival time, dose: 400.0 mg/kg/injection, schedule: Q04DX003 (ip), vehicle: saline with Tween-80
[9] = endpoint: mean survival time, dose: 50.0 mg/kg/injection, schedule: Q01DX009 (ip), vehicle: Klucel (hydroxypropylcellulose) (HPC)
[10] = endpoint: mean survival time, dose: 100.0 mg/kg/injection, schedule: Q01DX009 (ip), vehicle: Klucel (hydroxypropylcellulose) (HPC)
[11] = endpoint: mean survival time, dose: 200.0 mg/kg/injection, schedule: Q01DX009 (ip), vehicle: Klucel (hydroxypropylcellulose) (HPC)
[12] = endpoint: mean survival time, dose: 25.0 mg/kg/injection, schedule: Q04DX002 (ip), vehicle: saline with Tween-80
[13] = endpoint: mean survival time, dose: 50.0 mg/kg/injection, schedule: Q04DX002 (ip), vehicle: saline with Tween-80
[14] = endpoint: mean survival time, dose: 100.0 mg/kg/injection, schedule: Q04DX002 (ip), vehicle: saline with Tween-80
[15] = endpoint: mean survival time, dose: 100.0 mg/kg/injection, schedule: Q01DX001 (ip), vehicle: saline with Tween-80
[16] = endpoint: mean survival time, dose: 200.0 mg/kg/injection, schedule: Q01DX001 (ip), vehicle: saline with Tween-80
[17] = endpoint: mean survival time, dose: 400.0 mg/kg/injection, schedule: Q01DX001 (ip), vehicle: saline with Tween-80

O=C1/C(=C/c2cccc([N+](=O)[O-])c2)CCc2ccccc21
T/C [1]: 94 % of control
T/C (endpoint: mean survival time, dose: 200.0 mg/kg/injection, schedule: Q01DX009 (ip), vehicle: saline): 97 % of control
T/C [2]: 91 % of control

C#CCOC(=O)Nc1cccc2ccccc12
T/C (endpoint: mean survival time, dose: 100.0 mg/kg/injection, schedule: Q04DX003 (ip), vehicle: Klucel (hydroxypropylcellulose) (HPC)): 100 % of control
T/C (endpoint: mean survival time, dose: 200.0 mg/kg/injection, schedule: Q04DX003 (ip), vehicle: Klucel (hydroxypropylcellulose) (HPC)): 96 % of control
T/C (endpoint: mean survival time, dose: 400.0 mg/kg/injection, schedule: Q04DX003 (ip), vehicle: Klucel (hydroxypropylcellulose) (HPC)): 94 % of control

O=C(c1ccccc1)C(Sc1ccccc1)Sc1ccccc1
T/C (endpoint: median survival time, dose: 50.0 mg/kg/injection, schedule: Q04DX002 (ip), vehicle: saline with Tween-80): 100 % of control
T/C (endpoint: median survival time, dose: 100.0 mg/kg/injection, schedule: Q04DX002 (ip), vehicle: saline with Tween-80): 100 % of control
T/C (endpoint: median survival time, dose: 200.0 mg/kg/injection, schedule: Q04DX002 (ip), vehicle: saline with Tween-80): 100 % of control
T/C (endpoint: median survival time, dose: 400.0 mg/kg/injection, schedule: Q04DX002 (ip), vehicle: saline with Tween-80): 110 % of control

CC1(Br)CS(=O)(=O)CC1(C)Br (centres undefined)
T/C (endpoint: mean survival time, dose: 75.0 mg/kg/injection, schedule: Q01DX001 (ip), vehicle: saline with Tween-80): 104 % of control
T/C (endpoint: mean survival time, dose: 150.0 mg/kg/injection, schedule: Q01DX001 (ip), vehicle: saline with Tween-80): 98 % of control
T/C (endpoint: mean survival time, dose: 300.0 mg/kg/injection, schedule: Q01DX001 (ip), vehicle: saline with Tween-80): 101 % of control

Nc1ccccc1Sc1ccncc1[N+](=O)[O-]
T/C [3]: 96 % of control
T/C [4]: 90 % of control
T/C [5]: 100 % of control
T/C [6]: 95 % of control
T/C [7]: 101 % of control
T/C [8]: 97 % of control

O=c1nc2c(ncn2C2OC(CO)C(O)C2O)c(NCCc2ccccc2)[nH]1 (centres undefined)
T/C (endpoint: mean survival time, dose: 12.5 mg/kg/injection, schedule: Q01DX005 (ip), vehicle: water): 93 % of control
T/C (endpoint: mean survival time, dose: 25.0 mg/kg/injection, schedule: Q01DX005 (ip), vehicle: water): 98 % of control
T/C (endpoint: mean survival time, dose: 50.0 mg/kg/injection, schedule: Q01DX005 (ip), vehicle: water): 96 % of control
T/C (endpoint: mean survival time, dose: 100.0 mg/kg/injection, schedule: Q01DX005 (ip), vehicle: water): 112 % of control

COCC1OC(OC)C(OC)C(OC)C1OC (centres undefined)
T/C [3]: 94 % of control
T/C [5]: 102 % of control
T/C [7]: 105 % of control

CC(=O)NC(=O)NC(Cc1ccccc1)c1ccccc1 (centres undefined)
T/C [3]: 98 % of control
T/C [4]: 104 % of control
T/C [5]: 92 % of control
T/C [6]: 96 % of control
T/C [7]: 95 % of control
T/C [8]: 108 % of control

CC[S+](CC)CC
T/C (endpoint: mean survival time, dose: 50.0 mg/kg/injection, schedule: Q01DX009 (ip), vehicle: saline): 100 % of control
T/C [1]: 97 % of control

CNc1nc(NC)nc(NC)n1
T/C (endpoint: mean survival time, dose: 12.5 mg/kg/injection, schedule: Q01DX009 (ip), vehicle: Klucel (hydroxypropylcellulose) (HPC)): 95 % of control
T/C (endpoint: mean survival time, dose: 25.0 mg/kg/injection, schedule: Q01DX009 (ip), vehicle: Klucel (hydroxypropylcellulose) (HPC)): 97 % of control
T/C [9]: 97 % of control
T/C [10]: 100 % of control
T/C [11]: 103 % of control

Cc1ccc([N+](=O)[O-])cc1NC(=O)Nc1cc([N+](=O)[O-])ccc1F
T/C [9]: 112 % of control
T/C [10]: 101 % of control
T/C [11]: 101 % of control

CCCCN(C)c1ccc(N=Nc2cc(Cl)ccc2Cl)cc1
T/C [12]: 96 % of control
T/C [13]: 101 % of control
T/C [14]: 104 % of control

C=C(C(=O)OC)N1C(=O)CC(C)C1=O (centres undefined)
T/C (endpoint: mean survival time, dose: 12.5 mg/kg/injection, schedule: Q04DX002 (ip), vehicle: saline with Tween-80): 97 % of control
T/C [12]: 108 % of control
T/C [13]: 90 % of control
T/C [14]: 86 % of control

Nc1ccc(N(S(=O)(=O)c2ccccc2)S(=O)(=O)c2ccccc2)c(Cl)c1
T/C [15]: 96 % of control
T/C [16]: 98 % of control
T/C [17]: 96 % of control

CCCCCCCCC(C(=O)c1ccccc1)C(O)(C(F)(F)F)C(F)(F)F (centres undefined)
T/C [4]: 102 % of control
T/C [6]: 111 % of control
T/C [8]: 102 % of control

CCCCN(N=O)C(=O)Nc1ccc(C2CC(=O)N(C)C2=O)cc1 (centres undefined)
T/C (endpoint: mean survival time, dose: 12.5 mg/kg/injection, schedule: Q01DX001 (ip), vehicle: distilled water + Tween-80): 103 % of control
T/C (endpoint: mean survival time, dose: 25.0 mg/kg/injection, schedule: Q01DX001 (ip), vehicle: distilled water + Tween-80): 99 % of control
T/C (endpoint: mean survival time, dose: 50.0 mg/kg/injection, schedule: Q01DX001 (ip), vehicle: distilled water + Tween-80): 112 % of control
T/C (endpoint: mean survival time, dose: 100.0 mg/kg/injection, schedule: Q01DX001 (ip), vehicle: distilled water + Tween-80): 112 % of control
T/C (endpoint: mean survival time, dose: 200.0 mg/kg/injection, schedule: Q01DX001 (ip), vehicle: distilled water + Tween-80): 120 % of control

CCSC(SCC)[C@H](NC(C)=O)[C@@H](O)[C@H](O)[C@H](O)CO
T/C (endpoint: mean survival time, dose: 100.0 mg/kg/injection, schedule: Q04DX003 (ip), vehicle: saline): 101 % of control
T/C (endpoint: mean survival time, dose: 200.0 mg/kg/injection, schedule: Q04DX003 (ip), vehicle: saline): 98 % of control
T/C (endpoint: mean survival time, dose: 400.0 mg/kg/injection, schedule: Q04DX003 (ip), vehicle: saline): 95 % of control

O=C(CNC(=O)Nc1cccc([N+](=O)[O-])c1)N/N=C/c1cc(Br)ccc1O
T/C (endpoint: mean survival time, dose: 50.0 mg/kg/injection, schedule: Q01DX009 (ip), vehicle: saline with Tween-80): 92 % of control
T/C [3]: 88 % of control
T/C [5]: 88 % of control

NC(=O)c1cc2c3ccccc3ncc2c2ccccc12
T/C [4]: 101 % of control
T/C [6]: 97 % of control
T/C [8]: 94 % of control

COc1ccc(OC)c2[nH]c(=O)c(CCC(=O)O)nc12
T/C [15]: 98 % of control
T/C [16]: 92 % of control

Nc1ccc(CCCCc2ccc(Cl)cc2Cl)cc1
T/C [4]: 104 % of control
T/C [6]: 110 % of control

CCOC(=O)C(Cc1ccc(OC)cc1)P(=O)(OCC)OCC (centres undefined)
T/C (endpoint: mean survival time, dose: 100.0 mg/kg/injection, schedule: Q01DX001 (ip), vehicle: saline): 106 % of control
T/C (endpoint: mean survival time, dose: 200.0 mg/kg/injection, schedule: Q01DX001 (ip), vehicle: saline): 108 % of control
T/C (endpoint: mean survival time, dose: 400.0 mg/kg/injection, schedule: Q01DX001 (ip), vehicle: saline): 101 % of control

OCC1OC(n2cnc3c(SSc4ncnc5c4ncn5C4OC(CO)C(O)C4O)ncnc32)C(O)C1O (centres undefined)
T/C (endpoint: mean survival time, dose: 178.0 mg/kg/injection, schedule: Q01DX009 (ip), vehicle: saline): 115 % of control
T/C [2]: 150 % of control

CN1CCC(O)(O)C(Br)C1 (centres undefined)
T/C (endpoint: mean survival time, dose: 18.8 mg/kg/injection, schedule: Q01DX009 (ip), vehicle: saline): 98 % of control
T/C (endpoint: mean survival time, dose: 18.8 mg/kg/injection, schedule: Q04DX003 (ip), vehicle: saline): 102 % of control
T/C (endpoint: mean survival time, dose: 37.5 mg/kg/injection, schedule: Q01DX009 (ip), vehicle: saline): 100 % of control
T/C (endpoint: mean survival time, dose: 37.5 mg/kg/injection, schedule: Q04DX003 (ip), vehicle: saline): 106 % of control
T/C (endpoint: mean survival time, dose: 75.0 mg/kg/injection, schedule: Q01DX001 (ip), vehicle: saline): 102 % of control
T/C (endpoint: mean survival time, dose: 75.0 mg/kg/injection, schedule: Q01DX009 (ip), vehicle: saline): 88 % of control
T/C (endpoint: mean survival time, dose: 75.0 mg/kg/injection, schedule: Q04DX003 (ip), vehicle: saline): 100 % of control

c1ccc(-c2cscc2-c2ccccc2)cc1
T/C [15]: 96 % of control
T/C [16]: 96 % of control
T/C [17]: 96 % of control

COc1ccc(NC(=O)Nc2ccccc2F)cc1
T/C [4]: 102 % of control
T/C [6]: 101 % of control
T/C [8]: 95 % of control

O=C1NCC2(CCN(Cc3ccccc3)CC2)N1c1ccccc1
T/C [4]: 93 % of control
T/C [6]: 89 % of control
T/C [8]: 89 % of control
